Reference: article PMC4683533, “Discovery of novel INK4C small-molecule inhibitors to promote human and murine hematopoietic stem cell ex vivo expansion” (Scientific Reports, 2015)

Key:
HSCs (CD34−LKS cells) = experiment: single hematopoietic stem cell in vitro culture (nmEM colony) assay; type: cell-based, mouse; settings: 12.5 nM, 14-day treatment
Procedure: We biologically assessed the 22 putative p18SMI compounds for their ability to maintain HSCs stem cell characteristics, to be specific self-renewal and multi-lineage differentiation, using single cell cultures. […] Thus, we employed single HSC culture to assess p18SMI compounds’ effect upon HSCs. CD34^−LKS cells from C57BL/6 mice were individually deposited into a 96-well plate (one cell/well). The single cell was cultured for 14 days in 100 μL of serum-free medium (Gibco) containing 100 ng/mL of mouse stem cell factor (SCF), 10 ng/mL of mouse interleukin-3 (IL-3), 25 ng/mL of human thrombopoietin (TPO), 2 U/mL of human erythropoietin (EPO) and differing concentrations of the p18SMI compound. Cells were cultured 14 days for in vitro colony formation and colonies were then cytospined and analyzed by flow cytometry to test the subpopulation of cultured cells. Neutrophils (n), macrophages (m), erythroblasts (E) or megakaryocytes (M) were identified by the cell marker of Gr-1, Mac-1, Ter-119 and CD41 using flow cytometry. The wells from each group that generated all lineages (nmEM) were counted and the ratio to the control group (DMSO) was calculated.
Single CD34^-LKS cells from C57BL/6 mice were individually deposited into each well of a 96-well plate along with 100 μL of serum free medium (Gibco) containing 100 ng/mL of mouse SCF, 10 ng/mL of mouse IL-3, 25 ng/mL of human TPO, 2 U/mL of human EPO and p18SMI compounds (different dilutions). Cells were cultured in a 37 °C, 5% CO2 incubator for 14 days for ex vivo colony formation. Colonies were then cytospined and analyzed using flow cytometry. Neutrophils (n), macrophages (m), erythroblasts (E) or megakaryocytes (M) were identified based on their cell surface maker, Gr-1, Mac-1, Ter119 and CD41. Cells were measured on an FACS analyzer (FACSArray, BD Biosciences). […] The wells from each group that generated all lineages (nmEM) were counted. The ratio of p18SMI compound treatment group to the control group (DMSO-treated) was calculated and fitted to a curve to calculate the ED50 value using GraphPad Prism v6.0.

[1] = test system: c-Kit-enriched mouse BM cells (HSPC, LT-HSCs); experiment: ex vivo bulk culture of c-Kit-enriched BM cells with flow cytometry phenotyping; type: cell-based; settings: 5 days culture with cytokines
Procedure: To investigate the effect of p18SMI compounds on murine HSCs, c-Kit-enriched mouse BM cells were cultured for 5 days with media containing cytokines and the p18SMI compounds. […] Lin^−Sca-1^+(LS) cells were further analyzed using a combination of CD150 and CD48 (SLAM code) biomarkers for HSC identification. CD150^+ CD48^−KSLs (hereafter referred to as SLAM^+) cells are enriched for long term (LT)-HSCs.
HSCs expansion medium consists of BIT9500 (Stem Cell Technologies) supplemented with 50 ng/mL recombinant mouse (rm) SCF, 20 ng/mL FMS-like tyrosine kinase 3 ligand (Flt3L) and 10 ng/mL thrombopoietin (Tpo) (all from PeproTech, Inc.). p18SMI compounds were added where indicated. Bone marrow cells were harvested from C57BL/6 mice and made into a single-cell suspension. After immunomagnetic c-Kit enrichment (cKit-conjugated microbeads [MiltenyiBiotec, Bergisch-Gladbach]), cells were washed and resuspended in HSCs expansion medium. After culture, total nucleated cell counts were obtained, and a fraction of mononuclear cells (MNCs) or whole bone marrow cells were stained for flow cytometry analysis. Frequency of each cell population was determined by independently analyzing more than 5 × 10^5 cells per sample in triplicate.
For stem-cell quantitation, the cultured bone marrow nucleated cells were co-stained with a combination of PE-Cy7 labeled antibodies against mouse CD3, CD4, CD8, B220, Gr-1, Mac-1 and TER-119, anti-Sca-1-PercpCy5.5, anti-CD48-PE and anti-CD150-APC (all from Biolegend). DAPI was used for dead-cell discrimination. Due to the presence of cytokine stem cell factor (SCF), we could not detect the c-Kit marker of those cultured cells. […] Flow cytometry and flow sorting were conducted with a CyAn (DakoCytomation) or a FACSCalibur system (BD Biosciences). FlowJo software Version 7.6.2 (TreeStar) was used for data analysis.

HSCs (bone marrow MNCs) = experiment: cobblestone area forming cells (CAFC) assay with limiting dilution assay (LDA); type: cell-based, mouse; settings: day 35
Procedure: We also investigated whether the increased number of phenotypic SLAM^+LT-HSCs in short-term culture assays was correlated with an increase in functional LT-HSCs. Cobblestone area forming cells (CAFC) assay combined with limiting-dilution assays (LDA) were performed to measure the frequency of HSCs[19][22][30]. Compared with the control group (HSC frequency is 1 in 112,559 of the original plated cells), the frequency of HSC at day 35 (indicating the activity of hematopoietic reconstitution capacity) was 2.7-fold and 3.0-fold higher in the cultures treated with XIE18–6 (HSC frequency is 1 in 42,490 of the original plated cells) and compound 40 (HSC frequency is 1 in 37,524 of the original plated cells) (p < 0.001, Fig. 3C), respectively.
Freshly isolated bone marrow MNCs from mice, 6–8 weeks old, were plated in a 24-well plate with 1 mL Dexter’s medium at a density of 2 × 10^6 cells per mL in the absence or presence of different doses of the tested compounds. The culture was maintained at 33 °C with 5% CO2. The number of cobblestone areas (CAs) was counted weekly. The medium was also replaced with half fresh medium on a weekly basis. For the limiting dilution analysis (LDA) of the test cells, different limiting doses were plated on the irradiated stromal cells in 96-well plates containing 200 μL of M5300 medium (StemCell Technologies) supplemented with 10^−6 M hydrocortisone. Each group was done with 20 replicates well. Small-molecule compounds were added to the co-culture system at different doses. Half of the medium in each well was replaced with fresh medium containing the test compounds weekly. The existence of CA in each well was evaluated under an inverted microscope at weekly intervals for 5 weeks. Based on the Poisson distribution of the negative wells, the frequency of long-term initiating cells was calculated with L-Calc software (StemCell Technologies).

SMILES: O=C([O-])c1ccc(S(=O)(=O)NC2CCCCC2)cc1.[Na+] [Compound 40, sodium 4-(N-cyclohexylsulfamoyl)benzoate]
- increase of nmEM colonies as compared to the control group (HSCs (CD34−LKS cells)): 3.16 fold
- increase of absolute number of Lin-Sca-1+ hematopoietic stem/progenitor cells (HSPC) [1]: 2.29 fold
- increase of number of LT-HSCs (CD150+CD48− SLAM+) [1]: 2.61 fold
- total cellularity (total cell) [1]: slight increase
- HSC frequency (1 in x of the original plated cells) (HSCs (bone marrow MNCs)): 37,524
- frequency of HSC, fold higher than control group (HSCs (bone marrow MNCs)): 3.0 fold
